By IC50 is commonly meant the concentration at which inhibition is half-maximal.

Experimental findings from patent US20080114017A1, “Novel Indolopyridines, Benzofuranopyridines and Benzothienopyridines” (priority 2005, published 2008) are described below.

SMILES strings stand for the structures.

Assay [1] concerns RKO colon adenocarcinoma cells (RKOp27, induced). The assay is described as follows: Alamar Blue cell viability assay, cell cycle specific mode of action, RKO p27 cells arrested by Ponasterone A induced p27Kip1. In kind it is cell-based. To be noted: Homo sapiens, cells arrested by ectopic p27Kip1 induced with 10 μM Ponasterone A, 72 hours incubation. The protocol:
To determine the cell cycle specific mode of action, subclones of RKO colon adenocarcinoma cells (RKOp27 as described by Schmidt et al. in Oncogene 19, 2423-2429; 2000) are seeded into 96 well flat bottom plates at a density of 16000 cells per well in a volume of 50 μl per well in DMEM growth medium with 10% FCS containing 10 μM Ponasterone A. 24 hours after seeding the 50 μl each of the compound dilutions in DMEM medium are added into each well of the 96-well plate. Each compound dilution is tested as quadruplicates. Wells containing untreated control cells are filled with 50 μl DMEM medium containing 1% DMSO. The cells are then incubated with the substances for 72 hours at 37° C. in a humidified atmosphere containing 5% carbon dioxide. To determine the viability of the cells, 10 μl of an Alamar Blue solution (Biosource) are added and the fluorescence is measured at an extinction of 544 nm and an emission of 590 nm. For the calculation of the cell viability the emission value from untreated cells is set as 100% viability and the emission rates of treated cells are set in relation to the values of untreated cells. Viabilities are expressed as % values. Viability is compared of proliferating cells grown in the absence of the inducer Ponasterone A, versus viability of cells arrested by the expression of ectopic p27Kip1 induced by Ponasterone A.
(§1) Representative IC50 values for anti-proliferation/cytotoxicity determined in the aforementioned assays follow from the following table A, in which the numbers of the compounds correspond to the numbers of the examples.
(Resazurin is reduced to fluorescent resorufin, in cell work by metabolically active cells.)

The test system of assay [2] is RKO human colon adenocarcinoma cells (RKO p27 subclone, uninduced). Put plainly: Alamar Blue cell viability assay, anti-proliferative/cytotoxic activity, proliferating RKO p27 cells (uninduced). To be noted: RKOp27, absence of Ponasterone A, 72 hours incubation. In kind it is cell-based. The protocol: The anti-proliferative/cytotoxic activity of the compounds described herein can be tested on subclones of RKO human colon adenocarcinoma cells (Schmidt et al., Oncogene 19, 2423-2429; 2000) using the Alamar Blue cell viability assay (described in O'Brien et al. Eur J Biochem 267, 5421-5426, 2000). The compounds are dissolved as 10 mM solutions in DMSO and subsequently diluted in semi-logarithmic steps. DMSO dilutions are further diluted 1:100 into Dulbecco's modified Eagle's medium (DMEM) containing 10% fetal calf serum to a final concentration twice as much as the final concentration in the test. RKO subclones are seeded into 96 well flat bottom plates at a density of 4000 cells per well in a volume of 50 μl per well. 24 hours after seeding the 50 μl each of the compound dilutions in DMEM medium are added into each well of the 96 well plate. Each compound dilution is tested as quadruplicates. Wells containing untreated control cells are filled with 50 μl DMEM medium containing 1% DMSO. The cells are then incubated with the substances for 72 hours at 37° C. in a humidified atmosphere containing 5% carbon dioxide. To determine the viability of the cells, 10 μl of an Alamar Blue solution (Biosource) are added and the fluorescence is measured at an extinction of 544 nm and an emission of 590 nm. For the calculation of the cell viability the emission value from untreated cells is set as 100% viability and the emission rates of treated cells are set in relation to the values of untreated cells. Viabilities are expressed as % values.
The corresponding IC50 values of the compounds for anti-proliferative/cytotoxic activity are determined from the concentration-effect curves.
as §1

For the compound `COC(=O)c1cccc([C@@H]2c3[nH]c4ccccc4c3C[C@H]3C(=O)N(C)C(=S)N23)c1` (racemic) [Compound 4, 3-((3aSR, 10RS)-2-Methyl-3-oxo-1-thioxo-2,3,3a,4,9,10-hexahydro-1H-2,9,10a-triaza-cyclopenta[b]fluoren-10-yl)-benzoic acid methyl ester], the values for the IC50 in assay [1] and in assay [2] were greater than 100 µM and no more than 2000 nM, respectively.
For the compound `COC(=O)c1ccc(OC)c([C@@H]2c3[nH]c4ccccc4c3C[C@H]3C(=O)N(C)C(=S)N23)c1` [Compound 7, 4-Methoxy-3-((3aS,10R)-2-methyl-3-oxo-1-thioxo-2,3,3a,4,9,10-hexahydro-1H-2,9,10a-triaza-cyclopenta[b]fluoren-10-yl)-benzoic acid methyl ester], the results for the half-maximal inhibitory concentration (IC50) in assay [1] and in assay [2] were greater than 100 µM and no more than 2000 nM, respectively.
On the same counts, the results for `CN1C(=O)[C@@H]2Cc3c([nH]c4ccccc34)[C@@H](c3cccc(OC(F)(F)F)c3)N2C1=S` [Compound 1, (3aS,10R)-2-Methyl-1-thioxo-10-(3-trifluoromethoxy-phenyl)-1,2,3a,4,9,10-hexahydro-2,9,10a-triaza-cyclopenta[b]fluoren-3-one] are greater than 100 µM and no more than 2000 nM.
In the same order, the values of `COC(=O)c1cc(Cl)cc([C@@H]2c3[nH]c4ccccc4c3C[C@H]3C(=O)N(C)C(=S)N23)c1` [Compound 6, 3-Chloro-5-((3aS,10R)-2-methyl-3-oxo-1-thioxo-2,3,3a,4,9,10-hexahydro-1H-2,9,10a-triaza-cyclopenta[b]fluoren-10-yl)-benzoic acid methyl ester] are greater than 100 µM and no more than 2000 nM.
In the same order, the values of `COC(=O)c1cccc([C@@H]2c3[nH]c4ccccc4c3C[C@H]3C(=O)N(C)C(=S)N23)c1` [Compound 5, 3-((3aS,10R)-2-Methyl-3-oxo-1-thioxo-2,3,3a,4,9,10-hexahydro-1H-2,9,10a-triaza-cyclopenta[b]fluoren-10-yl)-benzoic acid methyl ester] are greater than 100 µM and no more than 2000 nM.
